Measurements published in PubChem BioAssay AID1745844 (Carcinogenic Potency Database (CPDB), 2022).
Where “and” joins values, the source holds several entries; their conditions need not be identical. Equal entries are not always repeated. Calls of active or inactive are those of the source. No rule for the calls is given here.

Tested on: rodent lifetime carcinogenesis bioassay, tumor incidence TD50
Assay: carcinogenic potency in animals, long-term in vivo studies, CPDB compilation (AID 1745844)

In the case of O=[N+]([O-])c1ccc2c3c(cccc13)CC2, the TD50 (hamster, strain Syrian Golden, females, in feed, site: bile duct, lesion: cholangioma, dosed 26 weeks, study length 71 weeks) is reported as 354 mg/kg/day, the TD50 (mouse, strain B6C3F1, females, in feed, site: any site (literature study), lesion: several types, types named in the paper, dosed 78 weeks, study length 96 weeks) is reported as 90.4 mg/kg/day and the TD50 (mouse, strain B6C3F1, females, in feed, site: liver + ovary, lesion: hepatocellular carcinoma + granulosa-cell tumor + luteoma + tubular adenoma, dosed 78 weeks, study length 96 weeks) is reported as 45.3 mg/kg/day. It also gave a TD50 (mouse, strain B6C3F1, females, in feed, site: liver, lesion: hepatocellular adenoma + hepatocellular carcinoma + neoplastic nodule, dosed 78 weeks, study length 96 weeks) of 45.8 mg/kg/day, a TD50 (mouse, strain B6C3F1, females, in feed, site: liver, lesion: hepatocellular carcinoma, dosed 78 weeks, study length 96 weeks) of 45.8 mg/kg/day and a TD50 (mouse, strain B6C3F1, females, in feed, site: lung, lesion: alveolar/bronchiolar adenoma + alveolar/bronchiolar carcinoma, dosed 78 weeks, study length 96 weeks) of 1320 mg/kg/day. The TD50 (mouse, strain B6C3F1, females, in feed, site: ovary, lesion: granulosa-cell tumor + luteoma + tubular adenoma, dosed 78 weeks, study length 96 weeks) was 217 mg/kg/day, the TD50 (mouse, strain B6C3F1, females, in feed, site: ovary, lesion: tubular adenoma, dosed 78 weeks, study length 96 weeks) was 395 mg/kg/day and the carcinogen call (mouse, strain B6C3F1, males, in feed, site: any site (literature study), lesion: several types, types named in the paper, dosed 78 weeks, study length 95 weeks) was “negative (inactive)”. It also gave a TD50 (rat, strain Fischer 344, females, in feed, site: any site (literature study), lesion: several types, types named in the paper, dosed 78 weeks, study length 101 weeks) of 6.44 mg/kg/day, a TD50 (rat, strain Fischer 344, females, in feed, site: clitoral gland + ear canal + lung + mammary gland, lesion: carcinoma, NOS + carcinosarcoma + ceruminous carcinoma + squamous-cell carcinoma + alveolar/bronchiolar adenoma + alveolar/bronchi, dosed 78 weeks, study length 101 weeks) of 5.98 mg/kg/day and a TD50 (rat, strain Fischer 344, females, in feed, site: clitoral gland, lesion: carcinoma, NOS, dosed 78 weeks, study length 101 weeks) of 52.2 mg/kg/day. It also gave a TD50 (rat, strain Fischer 344, females, in feed, site: ear canal, lesion: carcinosarcoma + ceruminous carcinoma + squamous-cell carcinoma, dosed 78 weeks, study length 101 weeks) of 14.9 mg/kg/day, a TD50 (rat, strain Fischer 344, females, in feed, site: ear canal, lesion: ceruminous carcinoma, dosed 78 weeks, study length 101 weeks) of 17.4 mg/kg/day and a TD50 (rat, strain Fischer 344, females, in feed, site: ear canal, lesion: squamous-cell carcinoma, dosed 78 weeks, study length 101 weeks) of 90.5 mg/kg/day. The TD50 (rat, strain Fischer 344, females, in feed, site: lung, lesion: alveolar/bronchiolar adenoma + alveolar/bronchiolar carcinoma, dosed 78 weeks, study length 101 weeks) was 9.63 mg/kg/day, the TD50 (rat, strain Fischer 344, females, in feed, site: mammary gland, lesion: adenocarcinoma, NOS + papillary cystadenocarcinoma, NOS, dosed 78 weeks, study length 101 weeks) was 77.9 mg/kg/day and the TD50 (rat, strain Fischer 344, females, in feed, site: mammary gland, lesion: adenocarcinoma, NOS, dosed 78 weeks, study length 101 weeks) was 81.7 mg/kg/day. It also gave a TD50 (rat, strain Fischer 344, males, in feed, site: any site (literature study), lesion: several types, types named in the paper, dosed 74 weeks, study length 101 weeks) of 5.58 mg/kg/day, a TD50 (rat, strain Fischer 344, males, in feed, site: ear canal + lung, lesion: ceruminous carcinoma + squamous-cell carcinoma + alveolar/bronchiolar adenoma + alveolar/bronchiolar carcinoma, dosed 74 weeks, study length 101 weeks) of 6.45 mg/kg/day and a TD50 (rat, strain Fischer 344, males, in feed, site: ear canal, lesion: ceruminous carcinoma + squamous-cell carcinoma, dosed 74 weeks, study length 101 weeks) of 7.88 mg/kg/day. For the same molecule, the TD50 (rat, strain Fischer 344, males, in feed, site: ear canal, lesion: ceruminous carcinoma, dosed 74 weeks, study length 101 weeks) was 8.92 mg/kg/day, the TD50 (rat, strain Fischer 344, males, in feed, site: ear canal, lesion: squamous-cell carcinoma, dosed 74 weeks, study length 101 weeks) was 68.2 mg/kg/day and the TD50 (rat, strain Fischer 344, males, in feed, site: kidney, lesion: tubular-cell adenoma + tubular-cell adenocarcinoma, dosed 74 weeks, study length 101 weeks) was 42.9 mg/kg/day. It also gave a TD50 (rat, strain Fischer 344, males, in feed, site: liver, lesion: hepatocellular adenoma + hepatocellular carcinoma + neoplastic nodule, dosed 74 weeks, study length 101 weeks) of 71.4 mg/kg/day, a TD50 (rat, strain Fischer 344, males, in feed, site: lung, lesion: alveolar/bronchiolar adenoma + alveolar/bronchiolar carcinoma, dosed 74 weeks, study length 101 weeks) of 29.9 mg/kg/day and a TD50 (rat, strain Fischer 344, males, in feed, site: lung, lesion: alveolar/bronchiolar carcinoma, dosed 74 weeks, study length 101 weeks) of 35.1 mg/kg/day. The TD50 (rat, strain Fischer 344, males, in feed, site: thyroid gland, lesion: follicular-cell adenoma + papillary adenoma, dosed 74 weeks, study length 101 weeks) was 58.5 mg/kg/day and the TD50 (rat, strain Fischer 344, males, in feed, site: thyroid gland, lesion: follicular-cell carcinoma + papillary adenocarcinoma, dosed 74 weeks, study length 101 weeks) was 37.7 mg/kg/day.
With OCc1ccccc1 the TD50 (mouse, strain B6C3F1, females, by gavage, site: any site (literature study), lesion: several types, types named in the paper, dosed 103 weeks, study length 104 weeks) was 57500 mg/kg/day (inactive), the TD50 (mouse, strain B6C3F1, females, by gavage, site: liver, lesion: hepatocellular adenoma + hepatocellular carcinoma + neoplastic nodule, dosed 103 weeks, study length 104 weeks) was 1040 mg/kg/day and the TD50 (mouse, strain B6C3F1, males, by gavage, site: adrenal gland, lesion: cortical adenoma, dosed 103 weeks, study length 104 weeks) was 1620 mg/kg/day (inactive). For the same molecule, the TD50 (mouse, strain B6C3F1, males, by gavage, site: liver, lesion: hepatocellular adenoma + hepatocellular carcinoma + neoplastic nodule, dosed 103 weeks, study length 104 weeks) was 588 mg/kg/day, the TD50 (mouse, strain B6C3F1, males, by gavage, site: lung, lesion: alveolar/bronchiolar adenoma + alveolar/bronchiolar carcinoma, dosed 103 weeks, study length 104 weeks) was 546 mg/kg/day and the TD50 (rat, strain Fischer 344, females, by gavage, site: any site (literature study), lesion: several types, types named in the paper, dosed 103 weeks, study length 104 weeks) was 885 mg/kg/day (inactive). For the same molecule, the TD50 (rat, strain Fischer 344, males, by gavage, site: mammary gland, lesion: adenoma, NOS + fibroadenoma, dosed 103 weeks, study length 104 weeks) was 1140 mg/kg/day (inactive) and the TD50 (rat, strain Fischer 344, males, by gavage, site: mammary gland, lesion: fibroadenoma, dosed 103 weeks, study length 104 weeks) was 1380 mg/kg/day.
With OC[C@@H](O)[C@@H](O)[C@H](O)[C@H](O)CO the TD50 (mouse, strain B6C3F1, females, in feed, site: all sites, lesion: hemangiosarcoma, dosed 103 weeks, study length 104 weeks) was 46700 mg/kg/day (inactive), the TD50 (mouse, strain B6C3F1, females, in feed, site: all sites, lesion: lymphocytic leukemia, dosed 103 weeks, study length 104 weeks) was 48000 mg/kg/day and the carcinogen call (mouse, strain B6C3F1, males, in feed, site: any site (literature study), lesion: several types, types named in the paper, dosed 103 weeks, study length 104 weeks) was “negative (inactive)”. For the same molecule, the TD50 (mouse, strain B6C3F1, males, in feed, site: lung, lesion: alveolar/bronchiolar adenoma + alveolar/bronchiolar carcinoma, dosed 103 weeks, study length 104 weeks) was 98100 mg/kg/day, the TD50 (rat, strain Fischer 344, females, in feed, site: any site (literature study), lesion: several types, types named in the paper, dosed 103 weeks, study length 104 weeks) was 5000 mg/kg/day (inactive) and the carcinogen call (rat, strain Fischer 344, males, in feed, site: any site (literature study), lesion: several types, types named in the paper, dosed 103 weeks, study length 104 weeks) was “negative (inactive)”. The TD50 (rat, strain Fischer 344, males, in feed, site: liver, lesion: hepatocellular adenoma + hepatocellular carcinoma + neoplastic nodule, dosed 103 weeks, study length 104 weeks) was 18000 mg/kg/day.
For Nc1ccc(Oc2ccc(Cl)cc2)cc1, the TD50 (mouse, strain CD-1 HaM/ICR, females, in feed, site: all sites, lesion: all vascular tumors, dosed 68 weeks, study length 86 weeks) was 346 mg/kg/day, the TD50 (mouse, strain CD-1 HaM/ICR, females, in feed, site: any site (literature study), lesion: several types, types named in the paper, dosed 68 weeks, study length 86 weeks) was 598 mg/kg/day and the TD50 (mouse, strain CD-1 HaM/ICR, females, in feed, site: liver, lesion: several types, types named in the paper, dosed 68 weeks, study length 86 weeks) was 905 mg/kg/day. For the same molecule, the TD50 (mouse, strain CD-1 HaM/ICR, females, in feed, site: urinary bladder, lesion: several types, types named in the paper, dosed 68 weeks, study length 86 weeks) was 1130 mg/kg/day, the carcinogen call (mouse, strain CD-1 HaM/ICR, males, in feed, site: any site (literature study), lesion: several types, types named in the paper, dosed 51 weeks, study length 55 weeks) was “negative (inactive)” and the carcinogen call (mouse, strain CD-1 HaM/ICR, males, in feed, site: liver, lesion: several types, types named in the paper, dosed 51 weeks, study length 55 weeks) was “negative (inactive)”. The carcinogen call (mouse, strain CD-1 HaM/ICR, males, in feed, site: lung, lesion: several types, types named in the paper, dosed 51 weeks, study length 55 weeks) was “negative (inactive)”, the TD50 (rat, strain Charles River CD (Sprague-Dawley), males, in feed, site: any site (literature study), lesion: several types, types named in the paper, dosed 77 weeks, study length 98 weeks) was 25.1 mg/kg/day and the TD50 (rat, strain Charles River CD (Sprague-Dawley), males, in feed, site: liver, lesion: hepatoma, dosed 77 weeks, study length 98 weeks) was 37.9 mg/kg/day and 37.6 mg/kg/day. It also gave a TD50 (rat, strain Charles River CD (Sprague-Dawley), males, in feed, site: liver, lesion: several types, types named in the paper, dosed 77 weeks, study length 98 weeks) of 37.9 mg/kg/day.
